Results: patent US20260199555A1, “3D PRINTING OF HIGH CELL DENSITY VASCULARIZED TISSUE” (priority 2022, published 2026)

Legend:
[1] = tested on: human umbilical vein endothelial cells (HUVEC); experiment: CCK8 metabolic activity of printed thin slabs, HUVEC in GelMA; assay type: cell-based; conditions: 35% vs 0% IDX; 5% GelMA, 2 million/mL HUVEC; 7 days culture; n=6, p>0.1
Source text: (§1) In order to verify IDX's biocompatibility with various biomaterials and cell types, we performed thin slab bioprinting using three commonly used formulas: human umbilical vein endothelial cells (HUVEC) in GelMA, human Schwann cells (HSC) in glycidyl methacrylate hyaluronic acid (GMHA), and C2C12 in alginate methacrylate (AlgMA). FIGS. 7A and 7B are plots of the refractive indices of these common bioinks at various biopolymer and IDX concentrations, respectively. Since the ideal IDX concentration range varies between 20% and 35%, we chose to compare 3D printed tissues in which 0% or 35% IDX was used. As will be apparent to those of skill in the art, other bioinks may be used including, but not limited to, multi-arm PEG (polyethylene glycol), Gel-NB (Gelatin-norbornene), Gel-SH (Gelatin-thiol), and combinations thereof, including HA-NB, HA-SH, etc. Furthermore, the sample cell types described herein are not intended to be limiting but were selected to evaluate the process's impact on viability of mammalian cells. Applications of the inventive approach go well beyond mammalian tissue/organ fabrication. […]
(§2) Cell viability in the printed thin slabs was quantified with Cell Counting Kit-8 (CCK-8, K1018, ApexBio). […] After incubation, 200 μL supernatant was collected from each sample and their OD at 450nm was measured with Tecan Infinite 200 pro.

[2] = tested on: human Schwann cells (HSC); experiment: CCK8 metabolic activity of printed thin slabs, HSC in GMHA; assay type: cell-based; conditions: 35% vs 0% IDX; 2.5% GMHA, 0.5% GelMA, 10 million/mL HSC; 7 days culture; n=6, p>0.1
Source text: as §1, §2

C2C12 = experiment: CCK8 metabolic activity of printed thin slabs, C2C12 in AlgMA; assay type: cell-based; conditions: 35% vs 0% IDX; 1% AlgMA, 0.25% GelMA, 10 million/mL C2C12; 7 days culture; n=6, p>0.1
Source text: as §1, §2

HUVEC [3] = experiment: Live/Dead staining of printed HUVEC thin slabs; assay type: cell-based; conditions: HUVEC in GelMA thin slabs
Source text: (§3) The bioink used in HUVEC viability experiment (FIGS. 3A, 3D) consists of 5% GelMA, 0.6% LAP, 2 million/mL HUVEC cells, 0% or 35% IDX, and PBS as solvent. The bioink used in HSC viability experiment (FIG. 3B) consists of 2.5% GMHA, 0.5% GelMA, 0.6% LAP, 10 million/mL HSC cells, 0% or 35% IDX, and PBS as solvent. The bioink used in C2C12 viability experiment (FIG. 3C) consists of 1% AlgMA, 0.25% GelMA, 0.6% LAP, 10 million/mL C2C12 cells, 0% or 35% IDX, and PBS as solvent. The bioink used in HUVEC RNAseq experiment (FIG. 3G) consists of 5% GelMA, 0.6% LAP, 10 million/mL HUVEC cells, 0% or 35% IDX, and PBS as solvent.
(§4) In addition, live/dead staining was also used to characterize cell viability. HUVEC in GelMA bioink is printed as thin slabs with either 0% or 35% IDX. […] Furthermore, the cytoskeleton of HUVECs was stained using phalloidin to visualize the cells' morphology.
The cell viability was also evaluated with Live/Dead staining. At designated time points, the slabs were washed with DPBS twice, incubated with 2 μM Calcein AM (C3099, Invitrogen) and 3 μM propidium iodide (P3566, Invitrogen) in the fresh culture media at their regular incubation condition for 30 min. After incubation, the slabs were washed with DPBS twice and imaged with Leica DMI6000B fluorescence microscope. The live cell percentage was counted using particle analysis tool in ImageJ.

HUVEC [4] = experiment: Phalloidin cytoskeleton staining of printed HUVEC slabs; assay type: cell-based, human; conditions: 0% vs 35% IDX, day 7
Source text: as §4

HUVEC [5] = experiment: RNA-seq of HUVECs in 3D-printed GelMA hydrogel (DESeq2, GSEA); assay type: cell-based, human
Source text: as §3
This is especially important for vasculature-on-a-chip studies, where the metabolism and immune-regulation of the endothelium is of interest. […] Here, RNA-sequencing (RNA-seq) was performed to comprehensively investigate the potential changes caused by IDX exposure in the HUVECs in 3D-printed GelMA hydrogel.
Differential expression was first investigated with DESEQ2. […] To further evaluate the biological impact that IDX brought to the bioprinted vasculature, Gene Set Enrichment Analysis (GSEA) using the Molecular Signature Database (MSigDB) was used. […] The heme metabolism is believed to be a result of the oxidative stress induced by the IDX, and the enrichment in the complement system is potentially related to inflammatory responses. These findings correlate well with the clinically observed adverse effects and previous toxicological studies of IDX.
HUVECs were 3D printed in 250 μm slabs using GelMA bioink with 0% or 35% IDX. After 7 days of culture, the RNAs from the 3D printed slabs are extracted with TRIzol reagent (15596018, Ambion) followed by purification using spin column method with Direct-zol RNA Microprep (R2060, Zymo Research). The RNA quality evaluation and sequencing was performed by Novogen Inc. The sequencing data was analyzed with FastQC, trimmed with Trimmomatic, aligned with HISAT2, annotated with StringTie. Differential gene expression was analyzed with DESeq2. Gene set enrichment analysis was performed with GSEA_4.2.3 (Broad Institute). Network analysis was performed with Cytoscape 3.9.1 using the EnrichmentMap application.

[6] = Refractive index measurement at 405 nm; assay type: physicochemical
Description: Tests verified that IDX can effectively tune the refractive index by measuring the refractive index of bioinks comprising 5% GelMA and various concentrations of IDX at the working wavelength of the bioprinter (405 nm). For refractive index measurement, mixtures of 5% GelMA with 0%, 20%, 25%, 30%, or 35% IDX, and PBS as solvent were prepared. […] The refractive indices of bioinks comprising 5% GelMA and 0% IDX, as well as the as-purchased IDX solution (OptiPrep™, Sigma-Aldrich) which contains 60% IDX, are also plotted for reference.
The refractive index of bioink can be measured using a simple refractometer with a 405 nm laser. […] The converging beam enters the prism-sample interface at different angles, and total internal reflection (TIR) happens at some of these angles. The diverging beam exits the prism, is collimated by a lens, and collected by a camera. […] In order to accurately relate the TIR boundary position on the captured image to the actual reflecting angle, water and isopropanol, whose refractive index and thus TIR critical angles are known, were used to calibrate this relation.

[7] = Scattering properties of cell-laden bioink (Monte-Carlo with particle swarm optimization); assay type: physicochemical
Description: The scattering effect of the material is usually characterized by scattering coefficient, anisotropy, and reduced scattering coefficient. To further verify that a proper concentration of IDX can effectively reduce the bioinks' scattering effect, bioinks comprising 5% GelMA, 40 million/mL 293T cells, and various IDX concentrations (0%, 20%, 25%, 30%, or 35%) were prepared. An approach that combined Monte-Carlo simulation and particle swarm optimization algorithm was used to determine the bioink's scattering properties at the working wavelength of the bioprinter (405 nm). […] The bioink without refractive index tuning has a scattering coefficient of 11.76 mm^−1, and a reduced scattering coefficient of 0.164 mm^−1. […] By carefully tuning the concentration of contrast agent, scattering can potentially be further reduced.
We used a well-developed 3D Monte-Carlo method combined with a particle swarm optimization algorithm (57) to numerically calculate the scattering properties of the cell-laden bioinks. The total transmittance and total reflectance at 405 nm of the 1 mm thick bioink containing 40 million/mL cells were measured using a UV-Vis-NIR spectroscope (Perkin Elmer, Lambda 1050) with integrating sphere. The angular intensity distribution of the scattered light at 405 nm was measured with a simple optical goniometer type setup. Given arbitrary optical properties, the total transmittance, total reflectance, and angular distribution can be calculated by the Monte-Carlo method. We then used a particle swarm optimization algorithm on MATLAB (MathWorks, Natick MA) to acquire the optical properties which best fit the measured total transmittance, total reflectance, and angular distribution. FIG. 2E provides sample line graphs showing that the simulated angular distribution of the scattered light well fits the measurement values. Next, we used the acquired scattering coefficient and anisotropy to simulate the spatial distribution of light inside the bioink with Monte-Carlo method. This spatial distribution is also the point spread function of scattering.

[8] = Brix refractometer measurement of 5% GelMA bioink with contrast agents; assay type: physicochemical; conditions: 5% GelMA bioink, 0, 20, 30, 40, 50% w/v contrast agent
Description: FIGS. 14A and 14B plot the results of measurement using a Brix refractometer of 5% GelMA bioink with various concentrations (0, 20, 30, 40, 50% w/v) of the contrast agents ioversol and iohexol, respectively. For comparison, a 100% (w/v) sample of each contrast agent was also measured. Since this method measures the number of dissolved solids in a liquid based on its specific gravity, the units are in Brix %. FIGS. 14C and 14D show the Brix % data converted to refractive index.

[9] = 35% vs 0% IDX, 7 days after bioprinting, |log2FoldChange|>0.5849, p<0.05
[10] = bioink 5% GelMA, 40 million/mL 293T cells, 30% IDX, 405 nm

| Compound | effect on cells' metabolic activity (CCK8) compared to controls [1] | effect on cells' metabolic activity (CCK8) compared to controls [2] | effect on cells' metabolic activity (CCK8) compared to controls (C2C12) | cell viability (live cell percentage) (HUVEC [3]; 0% or 35% IDX, Day 1, Day 3, Day 7) | difference in cell viability between 0% and 35% IDX (HUVEC [3]; n=4, p>0.1 for all pairs) | cell morphology / endothelialization (HUVEC [4]) | genes downregulated (HUVEC [5]; [9]) | genes significantly upregulated (HUVEC [5]; [9]) | principal component analysis clustering of samples (HUVEC [5]; 35% vs 0% IDX, n=3) | curated collection gene sets downregulated (HUVEC [5]; response to IDX exposure) | curated collection gene sets upregulated (HUVEC [5]; response to IDX exposure) | ontology collection gene sets downregulated (HUVEC [5]; response to IDX exposure) | ontology collection gene sets upregulated (HUVEC [5]; response to IDX exposure) | hallmark gene sets significantly enriched (GSEA) (HUVEC [5]; samples printed with IDX bioink, FDR<25%, p<0.05) | refractive index of the bioink versus IDX concentration ([6]; 5% GelMA, IDX 20% to 35%, 405 nm) | refractive index ([6]; IDX solution) | reduction of scattering ([7]; 30% IDX vs bioink without refractive index tuning) | reduced scattering coefficient [7, 10] | scattering coefficient [7, 10] | tuning of bioink refractive index [8] |
| --- | --- | --- | --- | --- | --- | --- | --- | --- | --- | --- | --- | --- | --- | --- | --- | --- | --- | --- | --- | --- |
| CC(=O)N(CC(O)CN(C(C)=O)c1c(I)c(C(=O)NCC(O)CO)c(I)c(C(=O)NCC(O)CO)c1I)c1c(I)c(C(=O)NCC(O)CO)c(I)c(C(=O)NCC(O)CO)c1I (centres unmarked) [IDX, iodixanol] | no statistically significant effect | no statistically significant effect | no statistically significant effect | greater than 90% | No statistically significant difference | no qualitative differences observed | 569 genes | 587 genes | did not cluster into two groups | 11 gene sets | 3 gene sets | 1 gene set | 18 gene sets | xenobiotic metabolism, heme metabolism, and complement gene sets | linearly increases | greater than 1.4 | approximately 10 fold | 0.014 mm^−1 | 1.377 mm^−1 |  |
| O=C(NCC(O)CO)c1c(I)c(C(=O)NCC(O)CO)c(I)c(N(CCO)C(=O)CO)c1I (centres unmarked) [ioversol] |  |  |  |  |  |  |  |  |  |  |  |  |  |  |  |  |  |  |  | can effectively tune its refractive index |
